Where a SMILES comes first, the peptide text is derived from it.
Tests used:
Format in all cases: binding
Cdh1 WD40 domain (yeast) = target: T1, Cdh1 WD40 domain (yeast) (Saccharomyces cerevisiae, UniProt P53197); experiment: Fluorescence anisotropy, 10 nM Cy5-labeled degron peptide, yeast Cdh1 WD40; conditions: up to 30.6 µM Cdh1^WD40; for Kd: Fig. 1a, mean of 2 or 3 independent experiments, wash buffer B, 25 °C, dark peptide where named 100 µM unlabeled, read-out: KD (mean ± SE)
T1 construct: the WD40 domains of yeast Cdh1 (aa 241–550; pNH144); 2xStrep-Tag II (N); made in house; host or cells: Sf9 insect cells (baculovirus)
T1 sequence (P53197 241-550): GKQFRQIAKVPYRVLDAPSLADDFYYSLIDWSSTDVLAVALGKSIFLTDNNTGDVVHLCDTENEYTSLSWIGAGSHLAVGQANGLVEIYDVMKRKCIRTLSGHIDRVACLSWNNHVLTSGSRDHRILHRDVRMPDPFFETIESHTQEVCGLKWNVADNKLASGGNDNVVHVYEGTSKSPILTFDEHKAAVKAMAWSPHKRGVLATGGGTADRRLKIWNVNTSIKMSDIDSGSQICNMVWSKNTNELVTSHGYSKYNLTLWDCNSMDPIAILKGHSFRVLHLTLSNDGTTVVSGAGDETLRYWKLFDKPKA
Description: To determine the affinities of APC/C degrons for their binding sites, we first used conventional equilibrium binding assays of degron peptide binding to the activator. We used the baculovirus system to produce the WD40 domain of Cdh1 from the budding yeast Saccharomyces cerevisiae and measured fluorescence anisotropy to assess the binding of fluorescently-tagged degron peptides at increasing activator concentrations. The WD40 domain of yeast Cdc20 could not be expressed and was not studied.
Activators were cloned into the pFastBac HT A vector, with an N-terminal 2xStrep-Tag II. For some experiments, we constructed vectors for expression of the WD40 domains of yeast Cdh1 (aa 241–550; pNH144), human Cdh1 (aa 165–484; pNH164), or human Cdc20 (aa 162–484; pNH188). For SMOR, a C-terminal GFP tag was added. Bacmid plasmids are listed in Supplementary Table 3. Plasmids were transformed into DH10Bac cells, and purified Bacmid was used to transfect Sf9 cells to generate P1 baculovirus, which was used to generate P2 virus. SF9 cells were infected with the P2 virus for 48 h. Flash-frozen pellets were lysed by sonication or high-pressure homogenization in lysis buffer B (50 mM Tris-HCl pH 8, 150 mM KCl, 0.5 mM EDTA, 1 mM DTT, 10% Glycerol, EDTA-free protease inhibitor tablet, 1 µg ml^−1 pepstatin A). After the lysate was applied to the StrepTrap column, the column was washed with wash buffer B (lysis buffer B lacking protease inhibitors) and eluted in the same buffer containing 2.5 mM desthiobiotin.
Fluorescent degron peptides carried a C-terminal Cy5 label (CPC Scientific) and are listed in Supplementary Table 4. For anisotropy experiments, 10 nM fluorescent peptide was mixed with various concentrations of purified Cdh1 WD40 in wash buffer B at room temperature for 1 min, which we determined was sufficient for the binding reaction to reach equilibrium. Fluorescence was measured on a K2 Multifrequency Fluorometer at 25 °C. All Cy5-labeled peptides were excited with polarized light at 635 nm and emission was detected using a 700/75 nm bandpass filter (ET series, Chroma). […] Data were fitted to one-site equilibrium binding using GraphPad Prism version 8.4 to determine KD. Results were the same when peptide binding was measured in the buffer used in SMOR assays (buffer C, below).

hCdh1^WD40 = target: T2, hCdh1^WD40 (Homo sapiens, UniProt Q9UM11); experiment: Fluorescence anisotropy, 10 nM Cy5-labeled peptide, hCdh1^WD40
T2 construct: human Cdh1 (aa 165–484; pNH164); made in house; host or cells: Sf9 insect cells (baculovirus)
T2 sequence (Q9UM11 165-484): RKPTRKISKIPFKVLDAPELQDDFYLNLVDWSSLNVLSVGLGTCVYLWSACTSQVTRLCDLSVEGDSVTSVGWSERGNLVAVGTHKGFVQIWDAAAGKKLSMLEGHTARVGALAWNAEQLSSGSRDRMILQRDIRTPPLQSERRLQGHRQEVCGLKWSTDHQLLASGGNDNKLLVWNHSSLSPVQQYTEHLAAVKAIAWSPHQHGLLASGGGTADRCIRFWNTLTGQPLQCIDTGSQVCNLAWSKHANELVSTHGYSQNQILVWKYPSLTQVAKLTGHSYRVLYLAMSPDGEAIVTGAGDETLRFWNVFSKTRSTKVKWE
Procedure: Activators were cloned into the pFastBac HT A vector, with an N-terminal 2xStrep-Tag II. For some experiments, we constructed vectors for expression of the WD40 domains of yeast Cdh1 (aa 241–550; pNH144), human Cdh1 (aa 165–484; pNH164), or human Cdc20 (aa 162–484; pNH188). For SMOR, a C-terminal GFP tag was added. Bacmid plasmids are listed in Supplementary Table 3. Plasmids were transformed into DH10Bac cells, and purified Bacmid was used to transfect Sf9 cells to generate P1 baculovirus, which was used to generate P2 virus. SF9 cells were infected with the P2 virus for 48 h. […]
Fluorescent degron peptides carried a C-terminal Cy5 label (CPC Scientific) and are listed in Supplementary Table 4. For anisotropy experiments, 10 nM fluorescent peptide was mixed with various concentrations of purified Cdh1 WD40 in wash buffer B at room temperature for 1 min, which we determined was sufficient for the binding reaction to reach equilibrium. Fluorescence was measured on a K2 Multifrequency Fluorometer at 25 °C. All Cy5-labeled peptides were excited with polarized light at 635 nm and emission was detected using a 700/75 nm bandpass filter (ET series, Chroma). […] Results were the same when peptide binding was measured in the buffer used in SMOR assays (buffer C, below). […]

hCdc20^WD40 = target: T3, hCdc20^WD40 (Homo sapiens, UniProt Q12834); experiment: Fluorescence anisotropy, 10 nM Cy5-labeled peptide, hCdc20^WD40
T3 construct: human Cdc20 (aa 162–484; pNH188); made in house; host or cells: Sf9 insect cells (baculovirus)
T3 sequence (Q12834 162-484): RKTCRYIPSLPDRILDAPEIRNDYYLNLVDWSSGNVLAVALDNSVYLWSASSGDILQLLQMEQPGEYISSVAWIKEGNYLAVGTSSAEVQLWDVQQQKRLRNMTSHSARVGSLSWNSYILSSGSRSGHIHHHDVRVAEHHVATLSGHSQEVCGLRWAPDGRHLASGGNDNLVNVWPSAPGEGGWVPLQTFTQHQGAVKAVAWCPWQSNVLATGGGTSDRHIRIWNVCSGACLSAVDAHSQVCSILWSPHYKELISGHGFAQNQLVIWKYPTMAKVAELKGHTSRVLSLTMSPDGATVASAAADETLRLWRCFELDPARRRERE

Molecule	Kd (Cdh1 WD40 domain (yeast)) [µM]	binding to Cdh1 (in words) (Cdh1 WD40 domain (yeast))	binding to human Cdh1 (in words) (hCdh1^WD40)	binding to human Cdc20 (in words) (hCdc20^WD40)
CC[C@H](C)[C@H](NC(=O)[C@H](Cc1ccccc1)NC(=O)[C@H](CO)NC(=O)[C@H](CCCCN)NC(=O)[C@H](CO)NC(=O)[C@H](CCCNC(=N)N)NC(=O)[C@H](CC(N)=O)NC(=O)[C@H](CC(N)=O)NC(=O)[C@H](CC(=O)O)NC(=O)[C@H](CCCCN)NC(=O)[C@H](C)NC(=O)[C@H](C)NC(=O)[C@H](CC(C)C)NC(=O)[C@@H]1CCCN1C(=O)[C@H](CC(C)C)NC(=O)[C@H](CCCNC(=N)N)NC(=O)CNC(=O)[C@H](CCC(N)=O)NC(=O)[C@H](CCC(N)=O)NC(=O)[C@H](CCC(N)=O)NC(=O)[C@H](C)N)C(=O)N[C@@H](CCCCN)C(=O)O [ySecurin D box] (H-AQQQGRLPLAAKDNNRSKSFIK-OH; N-terminus and C-terminus assumed)	> 30.6	Neither D box displayed significant binding to Cdh1		
CC(C)C[C@H](NC(=O)[C@H](C)NC(=O)[C@H](CCCNC(=N)N)NC(=O)[C@H](CCCNC(=N)N)NC(=O)[C@@H]1CCCN1C(=O)[C@H](CCCCN)NC(=O)[C@H](CO)NC(=O)[C@H](CC(=O)O)NC(=O)[C@@H](N)CCC(N)=O)C(=O)N[C@H](C(=O)N[C@@H](CC(=O)O)C(=O)N[C@H](C(=O)N1CCC[C@H]1C(=O)N[C@H](C(=O)N[C@@H](CC(N)=O)C(=O)N[C@@H](CC(N)=O)C(=O)N[C@@H](CC(N)=O)C(=O)N1CCC[C@H]1C(=O)N[C@@H](CC(C)C)C(=O)N[C@@H](CO)C(=O)N[C@@H](CCC(N)=O)C(=O)N[C@@H](CCCCN)C(=O)O)C(C)C)C(C)C)[C@@H](C)O [Clb5 D box] (H-QDSKPRRALTDVPVNNNPLSQK-OH; N-terminus and C-terminus assumed)	> 30.6	Neither D box displayed significant binding to Cdh1		
LIYVDKENGEPGTR-K(Cy5) [hSecurin KEN, Cy5-labeled KEN box peptide of human securin/Pttg1]			significant but low-affinity binding to Cdh1	not Cdc20
LPKATRKALGTVNRATEKSVK-K(Cy5) [AurKB D box, Cy5-labeled D box peptide of Aurora B kinase]			significant but low-affinity binding to Cdh1	not Cdc20
CC[C@H](C)[C@H](NC(=O)[C@H](CC(=O)O)NC(=O)[C@H](CO)NC(=O)[C@H](C)NC(=O)[C@H](C)NC(=O)[C@H](C)NC(=O)[C@H](C)NC(=O)[C@H](CCCCN)NC(=O)[C@@H]1CCCN1C(=O)[C@H](CCCCN)NC(=O)[C@H](CCC(N)=O)NC(=O)[C@@H](N)CCC(=O)O)C(=O)N[C@H](C(=O)N[C@@H](C)C(=O)N[C@@H](CO)C(=O)N[C@@H](Cc1ccccc1)C(=O)N[C@@H](CC(N)=O)C(=O)N[C@@H](CCCCN)C(=O)N[C@@H](CCSC)C(=O)N[C@@H](CC(N)=O)C(=O)N[C@@H](CCCCN)C(=O)O)[C@@H](C)O [Hsl1 D box mutant] (H-EQKPKAAAASDITASFNKMNK-OH; N-terminus and C-terminus assumed)	> 30.6	Binding was abolished		
SKAAQFMLYEETAEERNI-K(Cy5) [Acm1 ABBA, Cy5-labeled Cdh1-specific ABBA motif from pseudosubstrate yeast protein Acm1]		bound with very low affinity to Cdh1		
